Values quoted from earlier work in publication PMC3744102 (2010).
Several values for one entry are separate records, joined by “and”; a condition that tells them apart may be missing. Equal entries are not always repeated. Entries after “also recorded” stand apart in the source; their conditions may differ.

Tests used:
[1] = human blood
[2] = rhesus monkey blood

Substance: Y-G-G-F-L-R-R-I-R-P-K-L-K-W-D-N-Q
- cleaved bond [1]: Arg6-Arg7, major; also recorded: Tyr1-G2, major
- fragment found [1]: 3–17 and 4–17 and 2–6 and 8–17 and 9–17 and 11–17
- cleaved bond [2]: Arg6-Arg7, major; also recorded: Tyr1-G2, major
- fragment found [2]: 2–6 and 8–17 and 9–17 and 11–17 and 3–17 and 4–17
